Cn1cc[nH]c1=S
solubility (mole fraction)
Details | 278.15 K | 283.15 K | 288.15 K | 293.15 K | 298.15 K | 303.15 K | 308.15 K | 313.15 K | 318.15 K | 323.15 K
in 1,4-dioxane | 0.0435 | 0.0517 | 0.0616 | 0.0731 | 0.0874 | 0.102 | 0.119 | 0.141 | 0.164 | 0.187
in THF | 0.0475 | 0.0542 | 0.0634 | 0.0733 | 0.0841 | 0.0972 | 0.112 | 0.13 | 0.148 | 0.169
in acetone | 0.0425 | 0.0517 | 0.0623 | 0.0749 | 0.0889 | 0.107 | 0.124 | 0.147 | 0.167 | 0.193
in acetonitrile | 0.016 | 0.0216 | 0.0267 | 0.0338 | 0.0416 | 0.0531 | 0.0668 | 0.0818 | 0.101 | 0.121
in ethanol | 0.0275 | 0.0335 | 0.0417 | 0.0519 | 0.0645 | 0.0795 | 0.0968 | 0.117 | 0.139 | 0.167
in ethyl acetate | 0.0159 | 0.018 | 0.0198 | 0.022 | 0.0246 | 0.0273 | 0.0306 | 0.0339 | 0.038 | 0.0428
in isobutanol | 0.019 | 0.0233 | 0.0289 | 0.0365 | 0.0439 | 0.0542 | 0.0656 | 0.0809 | 0.0966 | 0.117
in isopropanol | 0.0168 | 0.0225 | 0.029 | 0.0381 | 0.0478 | 0.0621 | 0.0788 | 0.0985 | 0.123 | 0.152
in methanol | 0.06 | 0.0711 | 0.084 | 0.0996 | 0.125 | 0.148 | 0.177 | 0.21 | 0.244 | 0.283
in methyl acetate | 0.0288 | 0.0337 | 0.0391 | 0.0452 | 0.0521 | 0.0593 | 0.07 | 0.0817 | 0.0936 | 0.107
in n-butanol | 0.0194 | 0.026 | 0.0328 | 0.0414 | 0.0528 | 0.0665 | 0.0823 | 0.102 | 0.124 | 0.153
in n-propanol | 0.0261 | 0.032 | 0.0385 | 0.0468 | 0.0558 | 0.0663 | 0.0786 | 0.0931 | 0.111 | 0.13

— BigSolDB 2.1
